According to US12083084B2, “Method for enhancing energy production and metabolism in cells” (REPLICON HEALTH OY, priority 2013, dated 2024):
Entries after “also recorded” stand apart in the source; their conditions may differ.

Legend:
[1] = tested on: primary human hepatocytes; assay: Cellular ROS detection (DCFDA) in primary human hepatocytes; format: cell-based; conditions: for ROS production compared to 0 dose/control: donor four, High Medium, FIG. 5; for ROS compared to 0 dose/control (in words): moderate metabolic stress (1.5-2 h after change of medium)
Method: Primary human hepatocytes were purchased from Celsis In Vitro Technologies (1450 South Rolling Road Baltimore, MD 21227, USA). […] According to the information provided by the Celsis, hepatocytes from each donor should have at least 70% viability and more than 5 million viable cells. The medium for the culture of hepatocytes was provided by Celsis. They were InVitroGRO CP (for plating) medium (Z99029) and InVitroGRO HI (for incubation) medium (Z99009). Antibiotics (Torpedo Antibiotics Mix, Z990007) were also from Celsis. The thaw, plating and culture of cells were carried out according to the instruction provided by the Celsis In Vitro Technologies.
For the measurement of cell viability after treatment of test compound, CytoTox-One Homogeneous Membrane Integrity Assay kit (Promega, G7891) was used. The CytoTox-One Assay is a rapid fluorescent measure of the release of lactate dehydrogenase (LDH) from cells with a damaged membrane. The number of […] cells correlates to the fluorescence intensity determined by a fluorescence plate reader (Hidex Chameleon V multiplate reader, Hidex Oy, Turku, Finland) with excitation 544 nm and emission 590 nm. For the measurement of cellular reactive oxygen species (ROS), DCFDA Cellular ROS Detection Assay Kit from Abcam (ab113851) was used. Reactive oxygen species (ROS) assay kit (ab113851) uses the cell permeant reagent 2′,7′-dichlorofluorescein diacetate (DCFDA), a fluorogenic dye that measures hydroxyl, peroxyl and other ROS activity with the cell. The activity of ROS was measured by a fluorescence plate reader (Hidex) with excitation/emission wavelengths of 485 nm/535 nm.
The culture of primary hepatocytes was carried out based on the instructions provided by Celsis. After thawing, the cells were suspended in InVitroGRO CP medium. Thereafter the viability of cells was determined using the Trypan Blue exclusion method. Then the concentration of cells was adjusted using InVitroGRO CP medium, so about 30000-35000 cells/100 μl/well can be seeded in collagen I coated 96 well plate (BD, 734-0248).
After seeding, the cells were cultured overnight in the cell culture incubator (Sanyo MCO 18) at atmosphere of 95% air, 5% CO2 at 37° C. Thereafter, the culture medium for the cells was changed to InVitroGRO Hi (Hi Medium) containing test compound (D-glyceric acid calcium salt dehydrate) at the concentrations of 0, 0.2, 2 and 20 μg/ml (study 1, Table 1.1.1) and 0, 0.4, 2 and 10 μg/ml (study 2, Table 1.1.2).
In study 3 also LGA and HPA were tested and compared to DGA (see FIGS. 11c and 11d) with same doses as in study 2.
In studies 2-4 additional diet with 0.75 mM of palmitic acid (“fatty acid diet”) was added to Hi Medium. Hi Medium in itself contains ample amounts of glucose and fructose and other necessary ingredients for keeping viability of the cell culture at optimal level.
After 24 h (in study 1) and 20 h (in studies 2-4) incubation medium was renewed. Second renewal of the incubation medium occurred at 48 h in study 1 and at 40 h in other studies. ROS and LDH were measured after 1.5-2 hours after last change of the medium, i.e. in a situation with moderate metabolic stress.
The measurement of cellular reactive oxygen species (ROS) was carried out according to the instruction of Abcam (ab113851). At the end of treatment time point, culture medium was taken away for leaked LDH measurement and cells were washed with 100 μl/well PBS once. Thereafter 100 μl/well of DCDA mix was added and incubated for 45 min at 37° C. in the dark. Then cells were washed once with 1× buffer solution. The fluorescence signal was measured at an excitation wavelength of 485 nm and emission wavelength of 535 nm using the Hidex Chameleon V multiplate reader (Hidex Oy, Turku, Finland).
For the LDH and ROS assays, individual values of each measurement were stored and average value of fluorescence signals of various repeats of each treatment at studied time point were calculated and compared. […]

[2] = tested on: human primary hepatocytes; assay: NAD+/NADH quantification in human hepatocytes; format: cell-based; design: NADtot / NADH / NAD+ / NAD+/NADH: unit not given here; conditions: 48 h + 3 h
Source text: For the measurement of total NAD (NADtot=NADH+NAD^+) and NAD^+/NADH ratio, a NAD^+/NADH Quantification kit (MAK037) from Sigma was used. NAD functions as an electron carrier, fluctuating between the oxidized (NAD^+) and reduced (NADH) forms. In addition, NAD^+ plays critical roles in ADP-ribosylation reaction and as a substrate for sirtuins. According to the Sigma instruction, the NAD^+/NADH Quantification kit (Sigma) provides a convenient tool for sensitive detection of NAD, NADH and their ratio without requirement to purify them from samples. Important to notice is that the kit measures NADH and NAD^+ in whole cell including all cell organelles and compartments. Mitochondrial matrix is clearly dominant NADH producer from TCA and beta oxidation (consuming naturally the same amount of NAD^+ in redox reactions). Importantly, formed NADH is also typically oxidized into NAD^+ in the matrix by Complex I in ETC. As is well known anaerobic carbohydrate metabolism, i.e. glycolysis, in cytosol also consumes NAD^+ and produces NADH.
Cell culture in NADH-tests was like in Example 1.1. The change of the medium with DGAcs was conducted at 0 h, 24 h and 48 h. NAD measurements were made at 48+3 h in all cases. For CDP also HPA was tested, and for DOO no new nutrition at 48 h was added, i.e. test was conducted in fasting conditions.

[3] = Glucose tolerance test, plasma glucose and insulin; format: in vivo, human; conditions: 4.5 day experiment
Method: In the 4.5 day experiment also standard, fasting glucose tolerance test was conducted for S1 and S9 starting after 2.5 hours of last administration of DGAcs. Blood glucose levels were measured at 0 h, 60 min and 120 minutes.

[4] = donor alpha, new nutrition at 48 h, N = 5, 1.4 (μM)
[5] = donor alpha, new nutrition at 48 h, N = 5, 14 (μM)
[6] = donor one, new nutrition at 48 h, N = 5, 1.4 (μM)
[7] = donor one, new nutrition at 48 h, N = 5, 14 (μM)
[8] = donor three, no new nutrition at 48 h (fasting), N = 3, 1.4 (μM)
[9] = donor three, no new nutrition at 48 h (fasting), N = 3, 14 (μM)

Q: With `O=C(O)[C@H](O)CO` [DGA, D-glyceric acid] as the compound, how does the “ROS production compared to 0 dose/control” value ([1]; 1.5 h after new medium (moderate metabolic stress), 1.4 μM) read?
A: The value was “Significant efficacy”.

Q: And the “ROS production compared to 0 dose/control” value ([1]; 1.5 h after new medium, 0.14 μM)?
A: The value was “no effect”.

Q: What about the “ROS production compared to 0 dose/control” value ([1]; 1.5 h after new medium, 14 μM (2 μg/ml)) of the same compound?
A: Its value is “Biggest ROS scavenging effect”.

Q: And the “decline of ROS compared to control” value ([1]; donor one, Hi Medium+Palmitic acid, FIG. 11a)?
A: Its value is “same decline”.

Q: And the “amount of ROSs decreased by” value ([1]; primary human hepatocytes, metabolic stress situation)?
A: Its value is 15-40%.

Q: What about the “ROS compared to 0 dose/control (in words)” value ([1]; primary human hepatocytes) of the same compound?
A: The value was “decreases ROS”.

Q: And the “ROS scavenging in equimolar comparison against vitamin E, glutathione, vitamin C (and morin dehydrate)” value ([1]; study 4, donors alpha (FIG. 5) and (FIG. 6), 14 μM)?
A: Its value is “superior or at least as good ROS scavenger; also recorded: superior antioxidant”.

Q: With `O.O.O=C([O-])[C@H](O)CO.O=C([O-])[C@H](O)CO.[Ca+2]` [DGAcs, D-glyceric acid, calcium salt dehydrate] as the compound, how does the “Change in NAD+/NADH vs. Control” value [2, 4] read?
A: Its value is −53%.

Q: What about the “NAD+” value [2, 4] of the same compound?
A: Its value is 0.009.

Q: What about the “NAD+/NADH” value [2, 4] of the same compound?
A: The value was 0.040.

Q: What about the NADH [2, 4] of the same compound?
A: The NADH was 0.222.

Q: What about the NADtot [2, 4] of the same compound?
A: The NADtot was 0.231.

Q: And the “Change in NAD+/NADH vs. Control” value [2, 5]?
A: Its value is −62%.

Q: What about the “NAD+” value [2, 5] of the same compound?
A: The value was 0.007.

Q: And the “NAD+/NADH” value [2, 5]?
A: Its value is 0.032.

Q: What about the NADH [2, 5] of the same compound?
A: Its NADH is 0.225.

Q: What about the NADtot [2, 5] of the same compound?
A: The NADtot was 0.232.

Q: And the “Change in NAD+/NADH vs. Control” value [2, 6]?
A: Its value is −39.3%.

Q: What about the “NAD+” value [2, 6] of the same compound?
A: Its value is 0.040.

Q: And the “NAD+/NADH” value [2, 6]?
A: Its value is 0.139.

Q: And the NADH [2, 6]?
A: The NADH was 0.289.

Q: What about the NADtot [2, 6] of the same compound?
A: Its NADtot is 0.329.

Q: What about the “Change in NAD+/NADH vs. Control” value [2, 7] of the same compound?
A: The value was −87.2%.

Q: And the “NAD+” value [2, 7]?
A: Its value is 0.009.

Q: And the “NAD+/NADH” value [2, 7]?
A: The value was 0.029.

Q: And the NADH [2, 7]?
A: Its NADH is 0.294.

Q: And the NADtot [2, 7]?
A: The NADtot was 0.302.

Q: And the “Change in NAD+/NADH vs. Control” value [2, 8]?
A: The value was −64.6%.

Q: And the “NAD+” value [2, 8]?
A: The value was 0.004.

Q: What about the “NAD+/NADH” value [2, 8] of the same compound?
A: Its value is 0.017.

Q: And the NADH [2, 8]?
A: The NADH was 0.239.

Q: And the NADtot [2, 8]?
A: The NADtot was 0.243.

Q: And the “Change in NAD+/NADH vs. Control” value [2, 9]?
A: The value was −24.0%.

Q: And the “NAD+” value [2, 9]?
A: Its value is 0.009.

Q: What about the “NAD+/NADH” value [2, 9] of the same compound?
A: Its value is 0.037.

Q: And the NADH [2, 9]?
A: The NADH was 0.232.

Q: And the NADtot [2, 9]?
A: Its NADtot is 0.240.

Q: And the “drop of blood glucose at 120 min” value ([3]; S1 (starting level 5.0 mmol/L), 75 g glucose)?
A: Its value is “marginal”.

Q: And the “blood glucose lower at 120 min compared to the control” value ([3]; S9 (fasting blood glucose 6.0 mmol/L), 75 g glucose)?
A: The value was ~0.6 mmol/L.

Q: And the “blood insulin level at 60 minutes” value ([3]; S9, 75 g glucose)?
A: Its value is “higher insulin level”.

Q: And the “ROS compared to 0 dose/control (in words)” value ([1]; primary human hepatocytes)?
A: The value was “decrease ROS levels significantly; also recorded: reduced ROS”.
